According to US20080312304A1, “Topical compositions containing metronidazole” (priority 2007, published 2008):
Each block holds one compound with its values, some of them ahead of it.

Experiments:
[1] = physical stability test of aqueous metronidazole compositions (crystal formation or precipitation); type: physicochemical; settings: for concentration of the solubility enhancing agent required to obtain a stable aqueous solution of 1.0% metronidazole: agent used as the only solubility enhancing agent, stability test of Example 1; for N-2-hydroxyethyl urea concentration functionally equivalent to 1% of the agent in inducing the solubility enhancing effect: worked out from Examples 2, 3 and 4; for Results from stability test: 1.0% metronidazole, 24 hours room temperature, then 7 days at about 4 °C
Experimental: The solubility enhancing effect of the combination of niacinamide, urea, and hydroxyalkyl urea in increasing the solubility of metronidazole in the aqueous compositions is evaluated by physical stability of the prepared compositions.
Therefore, the compositions in accordance with the present invention are subject to a physical stability test. The protocol for the stability test is as follows: metronidazole and the solubility enhancing agents are combined with water either at room temperature or elevated temperature while stirring until dissolved. The solutions are permitted to cool to room temperature. Customary auxiliaries and additives may be added to the aqueous solutions containing solubilized metronidazole and solubility enhancing agents. The solutions may be gelled by using the suitable gelling agents. The compositions both in gel or solution form are then packaged in clear glass vials and sealed. The vials are kept at room temperature for 24 hours and monitored for crystal formation or precipitation. After 24 hours, the vials are placed in a refrigerator maintained at a temperature of about 4 ° C. for 7 days. After 7 days, the vials are removed from the refrigerator. Evidence of crystal formation or precipitation in the compositions is examined.

[2] = at 25 °C; cited from earlier work

concentration of the solubility enhancing agent required to obtain a stable aqueous solution of 1.0% metronidazole [1]: about 5% | N-2-hydroxyethyl urea concentration functionally equivalent to 1% of the agent in inducing the solubility enhancing effect [1]: about 3.2%
SMILES: NC(=O)c1cccnc1 [niacinamide]
water solubility limit [2]: about 50 % by weight

concentration of the solubility enhancing agent required to obtain a stable aqueous solution of 1.0% metronidazole [1]: about 16%
SMILES: NC(=O)NCCO [N-2-hydroxyethyl urea]

concentration of the solubility enhancing agent required to obtain a stable aqueous solution of 1.0% metronidazole [1]: about 10% | N-2-hydroxyethyl urea concentration functionally equivalent to 1% of the agent in inducing the solubility enhancing effect [1]: about 1.6%
SMILES: NC(N)=O [urea]

Results from stability test ([1]; 2% niacinamide in water): Crystals formed | Results from stability test ([1]; 3% niacinamide in water): Crystals formed | Results from stability test ([1]; 4% niacinamide in water): Crystals formed | Results from stability test ([1]; 7% urea in water): Crystals formed | Results from stability test ([1]; 8% urea in water): Crystals formed | Results from stability test ([1]; 9% urea in water): Crystals formed | Results from stability test ([1]; 13% N-2-hydroxyethyl urea in water): Crystals formed | Results from stability test ([1]; 14% N-2-hydroxyethyl urea in water): Crystals formed | Results from stability test ([1]; 15% N-2-hydroxyethyl urea in water): Crystals formed | result from the stability test, in words ([1]; composition containing 2.0% N-2-hydroxyethyl urea, 2.0% niacinamide, 2.0% urea and 1.0% metronidazole): stable
SMILES: Cc1ncc([N+](=O)[O-])n1CCO [Metronidazole, 1-(2-hydroxyethyl)-2-methyl-5-nitroimidazole]
Results from stability test ([1]; 2.0% urea, 2.0% N-2-hydroxyethyl urea, 2.0% niacinamide in water): Clear (‘clear’ means no crystals or precipitates) | Results from stability test ([1]; 3.0% urea, 3.0% N-2-hydroxyethyl urea, 1.5% niacinamide in water): Clear (‘clear’ means no crystals or precipitates) | Results from stability test ([1]; 5% niacinamide in water): Clear (‘clear’ means no crystals or precipitates) | Results from stability test ([1]; 10% urea in water): Clear (‘clear’ means no crystals or precipitates) | Results from stability test ([1]; 16% N-2-hydroxyethyl urea in water): Clear (‘clear’ means no crystals or precipitates)
